Reference: PubChem BioAssay (NCI)
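Five concentrations, 48 hours, 96-well plates. GI50: concentration for 50% inhibition of growth. TGI marks complete inhibition of growth.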

Key:
Assay in all cases: inhibition of tumour cell growth, NCI panel, 48 h
[1] = test system: SF-539 CNS
[2] = test system: 786-0 renal
[3] = test system: SK-MEL-2 melanoma
[4] = test system: OVCAR-5 ovarian
[5] = test system: HL-60(TB) leukemia
[6] = test system: PC-3 prostate
[7] = test system: SK-OV-3 ovarian
[8] = test system: A549 NSCLC
[9] = test system: OVCAR-8 ovarian
[10] = test system: IGROV1 ovarian
[11] = test system: M14 melanoma
[12] = test system: HCT-15 colon
[13] = test system: CAKI-1 renal
[14] = test system: TK-10 renal
[15] = test system: NCI/ADR-RES ovarian
[16] = test system: HS 578T breast
[17] = test system: UACC-62 melanoma
[18] = test system: MDA-MB-435
[19] = test system: UO-31 renal
[20] = test system: MCF7 breast
[21] = test system: SNB-75 CNS
[22] = test system: NCI-H23 lung
[23] = test system: SW-620 colon
[24] = test system: HOP-92 NSCLC
[25] = test system: CCRF-CEM leukemia
[26] = test system: HCC-2998 colon
[27] = test system: MDA-MB-231 breast
[28] = test system: RXF 393 renal
[29] = test system: NCI-H460 lung
[30] = test system: SF-268 CNS
[31] = test system: EKVX NSCLC
[32] = test system: BT-549 breast
[33] = test system: MALME-3M melanoma
[34] = test system: HCT-116 colon
[35] = test system: K-562 leukemia
[36] = test system: MOLT-4 leukemia
[37] = test system: OVCAR-4 ovarian
[38] = test system: DU-145 prostate
[39] = test system: COLO 205 colon
[40] = test system: T-47D breast
[41] = test system: NCI-H226 lung
[42] = test system: SF-295 CNS
[43] = test system: ACHN renal
[44] = test system: U251 CNS
[45] = test system: NCI-H522 lung
[46] = test system: HT29 colon
[47] = test system: SK-MEL-5 melanoma
[48] = test system: A498 renal
[49] = test system: UACC-257 melanoma
[50] = test system: LOX IMVI melanoma
[51] = test system: HOP-62 NSCLC
[52] = test system: SNB-19 CNS
[53] = test system: KM12 colon
[54] = test system: SN12C renal
[55] = test system: SK-MEL-28 melanoma
[56] = test system: OVCAR-3 ovarian
[57] = test system: SR leukemia
[58] = test system: RPMI-8226 leukemia

O=C(N=Nc1c(O)[nH]c2ccccc12)c1oc2ccccc2c1CN1CCN(c2ccccc2)CC1
GI50 [1]: 2.5 µM | TGI [1]: 8.53 µM | GI50 [2]: 0.865 µM | TGI [2]: 1.84 µM | GI50 [3]: 5.46 µM | TGI [3]: 15.8 µM | GI50 [4]: 2.54 µM | TGI [4]: 11.6 µM | GI50 [5]: 36.5 µM | TGI [5]: > 50 µM | GI50 [6]: 1.59 µM | TGI [6]: 7.23 µM | GI50 [7]: 7.3 µM | TGI [7]: 15.7 µM | GI50 [8]: 1.54 µM | TGI [8]: 8.21 µM | GI50 [9]: 1.66 µM | TGI [9]: 13.4 µM | GI50 [10]: 2.41 µM | TGI [10]: 11.2 µM | GI50 [11]: 2.07 µM | TGI [11]: 8.83 µM | GI50 [12]: 1.64 µM | TGI [12]: 10.2 µM | GI50 [13]: 2.42 µM | TGI [13]: 9.61 µM | GI50 [14]: 1.05 µM | TGI [14]: 3.58 µM | GI50 [15]: 1.29 µM | TGI [15]: 4.68 µM | GI50 [16]: 1.69 µM | TGI [16]: 10.4 µM | GI50 [17]: 2.38 µM | TGI [17]: 10 µM | GI50 [18]: 2.07 µM | TGI [18]: 8.26 µM | GI50 [19]: 1.01 µM | TGI [19]: 2.94 µM | GI50 [20]: 1.43 µM | TGI [20]: 5.89 µM | GI50 [21]: 1.04 µM | TGI [21]: 4.48 µM | GI50 [22]: 2.01 µM | TGI [22]: 8.73 µM | GI50 [23]: 1.5 µM | TGI [23]: 7.47 µM | GI50 [24]: 1.25 µM | TGI [24]: 5.78 µM | GI50 [25]: 1.68 µM | TGI [25]: > 50 µM | GI50 [26]: 6.83 µM | TGI [26]: 32 µM | GI50 [27]: 1.45 µM | TGI [27]: 4.58 µM | GI50 [28]: 1.01 µM | TGI [28]: 3.17 µM | GI50 [29]: 1.17 µM | TGI [29]: 2.79 µM | GI50 [30]: 1.97 µM | TGI [30]: 13.8 µM | GI50 [31]: 1.91 µM | TGI [31]: 10.3 µM | GI50 [32]: 5.81 µM | TGI [32]: 21 µM | GI50 [33]: 0.724 µM | TGI [33]: 1.7 µM | GI50 [34]: 1.55 µM | TGI [34]: 5.34 µM | GI50 [35]: 1.98 µM | TGI [35]: > 50 µM | GI50 [36]: 1.96 µM | TGI [36]: > 50 µM | GI50 [37]: 0.725 µM | TGI [37]: 1.46 µM | GI50 [38]: 1.22 µM | TGI [38]: 3.27 µM | GI50 [39]: 2.77 µM | TGI [39]: > 50 µM | GI50 [40]: 1.38 µM | TGI [40]: 5.41 µM | GI50 [41]: 6.68 µM | TGI [41]: 20.5 µM | GI50 [42]: 5.11 µM | TGI [42]: 12.5 µM | GI50 [43]: 1.02 µM | TGI [43]: 2.53 µM | GI50 [44]: 1.97 µM | TGI [44]: 8.67 µM | GI50 [45]: 3.58 µM | TGI [45]: 19.3 µM | GI50 [46]: 4.06 µM | TGI [46]: > 50 µM | GI50 [47]: 1.49 µM | TGI [47]: 5.19 µM | GI50 [48]: 1.56 µM | TGI [48]: 8.87 µM | GI50 [49]: 4.03 µM | TGI [49]: 28.3 µM | GI50 [50]: 2.04 µM | TGI [50]: 7.84 µM | GI50 [51]: 2.7 µM | TGI [51]: 10.9 µM | GI50 [52]: 1.96 µM | TGI [52]: 8.5 µM | GI50 [53]: 7.47 µM | TGI [53]: > 50 µM | GI50 [54]: 1.3 µM | TGI [54]: 3.9 µM | GI50 [55]: 1.54 µM | TGI [55]: 6.34 µM | GI50 [56]: 1.02 µM | TGI [56]: 1.94 µM

COc1ccc(-c2nn(-c3cccc(NC(=O)Nc4ccccc4)c3)cc2-c2ccncc2)cc1Cl
GI50 [1]: 1.8 µM | TGI [1]: 3.5 µM | GI50 [3]: 3.14 µM | TGI [3]: 7.53 µM | GI50 [4]: 2.5 µM | TGI [4]: 8.79 µM | GI50 [5]: 2.52 µM | TGI [5]: 6.36 µM | GI50 [6]: 1.84 µM | TGI [6]: 4.5 µM | GI50 [7]: 3.4 µM | TGI [7]: 30.8 µM | GI50 [8]: 2.11 µM | TGI [8]: 4.99 µM | GI50 [9]: 2.51 µM | TGI [9]: 7.18 µM | GI50 [10]: 2.73 µM | TGI [10]: 8.02 µM | GI50 [11]: 2.26 µM | TGI [11]: 4.85 µM | GI50 [12]: 1.96 µM | TGI [12]: 4.98 µM | GI50 [13]: 2.97 µM | TGI [13]: 9.35 µM | GI50 [15]: 2.81 µM | TGI [15]: 8.26 µM | GI50 [16]: 2.46 µM | TGI [16]: 7.94 µM | GI50 [17]: 3.05 µM | TGI [17]: > 100 µM | GI50 [18]: 2.03 µM | TGI [18]: 5.25 µM | GI50 [19]: 1.5 µM | TGI [19]: 4.02 µM | GI50 [20]: 2.07 µM | TGI [20]: 4.91 µM | GI50 [57]: 2.35 µM | TGI [57]: 6.69 µM | GI50 [21]: 1.33 µM | TGI [21]: 2.79 µM | GI50 [22]: 3.5 µM | TGI [22]: > 100 µM | GI50 [23]: 2.51 µM | TGI [23]: 7.36 µM | GI50 [25]: 2.65 µM | TGI [25]: 8.31 µM | GI50 [27]: 2.53 µM | TGI [27]: 8.01 µM | GI50 [28]: 1.97 µM | TGI [28]: 6.47 µM | GI50 [29]: 2.06 µM | TGI [29]: 4.48 µM | GI50 [30]: 2.6 µM | TGI [30]: 7 µM | GI50 [33]: 1.89 µM | TGI [33]: 4.83 µM | GI50 [35]: 3.49 µM | TGI [35]: > 100 µM | GI50 [36]: 2.5 µM | TGI [36]: 7.96 µM | GI50 [38]: 2.47 µM | TGI [38]: 5.87 µM | GI50 [39]: 2.56 µM | TGI [39]: 6.69 µM | GI50 [58]: 2.14 µM | TGI [58]: 5.83 µM | GI50 [40]: 2.19 µM | TGI [40]: 5.39 µM | GI50 [41]: 2.15 µM | TGI [41]: 5.81 µM | GI50 [42]: 2.01 µM | TGI [42]: 6.32 µM | GI50 [44]: 1.99 µM | TGI [44]: 4.91 µM | GI50 [45]: 2.5 µM | TGI [45]: 7.22 µM | GI50 [46]: 2.19 µM | TGI [46]: 4.78 µM | GI50 [48]: 1.17 µM | TGI [48]: 3.28 µM | GI50 [49]: 2.5 µM | TGI [49]: 6.33 µM | GI50 [50]: 3.25 µM | TGI [50]: 17 µM | GI50 [51]: 3.12 µM | TGI [51]: 9.13 µM | GI50 [52]: 2.83 µM | TGI [52]: > 100 µM | GI50 [53]: 2.25 µM | TGI [53]: 4.89 µM | GI50 [54]: 2.39 µM | TGI [54]: 7.39 µM | GI50 [55]: 2.62 µM | TGI [55]: 7.16 µM

C#CC[C@@H]1C[C@]2(C)[C@H]3CC=C4[C@H]5[C@@H](C)[C@H](C)CC[C@]5(C(=O)NCCCN5CCN(CCCN)CC5)CC[C@@]4(C)[C@]3(C)CC[C@H]2C(C)(C)[C@H]1OC(C)=O
GI50 [4]: 1.61 µM | TGI [4]: 3.02 µM
